Laboratory results from patent US10046032B2, “Use of insulin for promoting gastric emptying” (NUTRINIA LTD., priority 2016, dated 2018).
Values joined by “and” are separate entries in the source; they are usually repeats but may differ in a detail not shown here. Identical values can stand only once.

Key:
preterm infants [1] = test: Twin pair study: days until gastric residuals fall, insulin-enriched preterm formula vs placebo; type: in vivo, human; conditions: twin pairs
Source text: (§1) Evaluation of gastric residuals (GR) is used in neonatal intensive care units to measure the volume of milk remaining in the stomach at a variable time after a feeding, and as an indicator of gastric emptying (GE).
(§2) 33 preterm infants, aged up to 7 days old, born between 26-33 weeks of pregnancy, weighing over 750 grams, who are free from high index suspicion for infection showing stable condition were enrolled into this study.
(§3) The study products included the insulin composition disclosed herein and placebo. The insulin composition is intended to be mixed with 90 ml ready to feed (RTF) preterm infant formula (manufacturer: Nestle Germany, importer: Materna Laboratories, Israel). Once the insulin is added to the formula, the formula has the concentration of 400 μU Insulin/ml formula.
(§4) Standard feeding bottles and nipples were used.
(§5) The gastric residual amount was measured after every meal.
Twin pairs, treated with insulin as described above, were examined for number of days until gastric residual measurements reached less than 0 ml/kg body weight (FIG. 2 and Table 1) or 2 ml/kg (FIG. 1 and Table 2). […] The enteral administration of insulin strikingly provided a statistically significant improvement in the number of days until gastric residuals reached […] body weight, or <2 ml/kg body weight, relative to control treated infants.

preterm infants [2] = test: Singleton study: days until gastric residuals fall, insulin-enriched preterm formula vs placebo; type: in vivo, human; conditions: singletons
Source text: as §1, §2, §3, §4, §5
Singletons were examined for number of days until gastric residual measurements reached less than 2 ml/kg body weight (FIG. 3) and until no gastric residuals were emitted (Table 3).

preterm infants [3] = test system: preterm infants
Experimental: A Multi-center, two arms, randomized, double-blinded placebo controlled study was conducted to evaluate the effect of insulin-enriched infant formula on preterm infants. The insulin was given within a liquid infant formula with insulin concentration of 400 μU/ml. The study primary goal was to determine whether insulin supplement within the basic preterm oral formula enhances gastric emptying. The gastric emptying was evaluated by the reduction in the amount of gastric residual of the preterm infants.
The infants were randomly assigned to one of two treatment groups: the study product containing insulin as a test group and Placebo supplement as a control group. The parents, the medical team treating the infants and the study monitor were blinded to the treatment arm. From study day 1, the infants in the test group received insulin mixed with the ready to feed (RTF) preterm Materna formula and the control group received a placebo supplement mixed with the same RTF preterm Materna formula.
The insulin composition was used according to study definitions and feeding protocol only. Formula administration was begun at study day 1 and continued throughout the following 28 days or discharge day if achieved prior to day 28. […]

[4] = insulin 400 μU/ml in formula, up to 28 days

With Human insulin the “Time to reach gastric residuals of less than 2 ml/kg or 0 ml/kg versus control twin” value (preterm infants [1]; FIG. 1 (p=0.031) and FIG. 2 (p=0.074)) was “earlier than their control infant twin in most twin pairs”, the “Number of days until gastric residuals reached 0 ml/Kg body weight, Median” value (preterm infants [1]; [4]) was 0.0 days and the “Number of days until gastric residuals reached < 2 ml/Kg body weight, Median” value (preterm infants [1]; [4]) was 0 days. The “Number of days until gastric residuals reached < 2 ml/Kg body weight, Average” value (preterm infants [1]; insulin 400 μU/ml in formula, up to 28 days, P = 0.031 vs control) was 3.8 days, the “Number of days until gastric residuals reached 0 ml/Kg body weight, Average” value (preterm infants [1]; insulin 400 μU/ml in formula, up to 28 days, P = 0.074 vs control) was 4.1 days and the “Time to reach gastric residuals of less than 2 ml/kg versus control” value (preterm infants [2]; FIG. 3, P=0.121) was “earlier than the control”. For the same substance, the “Time to reach no gastric residuals (0 ml/kg) versus control” value (preterm infants [2]; Table 3, P=0.021) was “earlier than their control singletons”, the “Number of days until no gastric residuals are emitted, Median (range)” value (preterm infants [2]; insulin 400 μU/ml in formula, P=0.021 vs control) was 0.0 (0-2) days and the “Number of days until no gastric residuals are emitted, individual infant” value (preterm infants [2]; treatment infants no. 1-6, insulin 400 μU/ml in formula) was 0 days (5×) and 2 days. The “Deleterious effects resulting from the insulin administration” value (preterm infants [3]; low birth weight / preterm infants, enteral insulin) was “No deleterious effects” and the “Effect on blood glucose or insulin levels” value (preterm infants [3]; orally administered to preterm infants) was “without affecting the blood glucose or insulin levels”.
